Measurements: ChEMBL document CHEMBL6114969, “Ultra-short lipopeptides containing d-amino acid exhibiting excellent stability and antibacterial activity against gram-positive bacteria” (Eur J Med Chem, 2025)
Values after ≈ are worked out from the molar mass of the structure shown. Active and inactive are the calls of the source. The rule behind the calls is not given here.

Columns and labels:
[1] = Retention time of compound by RP-HPLC analysis; assay type: physicochemical
[2] = Hemolytic activity in mouse Red blood cells incubated for 1 hr by absorbance based analysis; assay type: toxicity, cell-based; details: erythrocyte
Staphylococcus aureus [3] = experiment: Antibacterial activity against methicillin-resistant Staphylococcus aureus ATCC 33591 incubated for 18 to 24 hrs in presence of 0.5 mg/ml of chymotrypsin by broth microdilution method; assay type: functional; details: time 18-24 hrs
Staphylococcus aureus [4] = experiment: Antibacterial activity against methicillin-resistant Staphylococcus aureus ATCC 33591 incubated for 18 to 24 hrs in presence of 2 mg/ml of chymotrypsin by broth microdilution method; assay type: functional; details: time 18-24 hrs
Staphylococcus aureus [5] = experiment: Antibacterial activity against methicillin-resistant Staphylococcus aureus ATCC 33591 assessed as fold change in MIC incubated for 18 to 24 hrs in presence of NaCl by broth microdilution method; assay type: functional; details: time 18-24 hrs
Staphylococcus aureus [6] = experiment: Antibacterial activity against methicillin-resistant Staphylococcus aureus ATCC 33591 assessed as bacterial growth inhibition at 0.5 to 1 times MIC incubated for 18 to 24 hrs by time-kill assay; assay type: functional, organism-based; details: time 18-24 hrs
Staphylococcus aureus [7] = experiment: Synergistic bactericidal activity against methicillin-resistant Staphylococcus aureus ATCC 33591 incubated for 18 to 24 hrs in presence of Polymyxin B by time-kill assay; assay type: functional, organism-based; details: time 18-24 hrs
Staphylococcus aureus [8] = experiment: Synergistic bactericidal activity against persistent methicillin-resistant Staphylococcus aureus ATCC 33591 incubated for 18 to 24 hrs in presence of ciprofloxacin by time-kill assay; assay type: functional, organism-based; details: time 18-24 hrs
Staphylococcus aureus [9] = experiment: Inhibition of imipenem-induced drug resistance in methicillin-resistant Staphylococcus aureus ATCC 33591 at sub-MIC measured upto 15 passages; assay type: functional, organism-based
Staphylococcus aureus [10] = experiment: Inhibition of gentamicin-induced drug resistance in methicillin-resistant Staphylococcus aureus ATCC 33591 at sub-MIC measured upto 15 passages; assay type: functional, organism-based
Staphylococcus aureus [11] = experiment: Inhibition of imipenem-induced drug resistance in Staphylococcus aureus ATCC 25923 at sub-MIC measured upto 15 passages; assay type: functional, organism-based
Staphylococcus aureus [12] = experiment: Antibacterial activity against gentamicin-resistant Staphylococcus aureus ATCC 25923 incubated for 18 to 24 hrs; assay type: functional; details: time 18-24 hrs
Staphylococcus aureus [13] = experiment: Antibacterial activity against drug-resistant methicillin-resistant Staphylococcus aureus ATCC 33591 incubated for 18 to 24 hrs; assay type: functional; details: time 18-24 hrs
Staphylococcus aureus [14] = experiment: Synergistic antibacterial activity against methicillin-resistant Staphylococcus aureus ATCC 33591 assessed as fractional inhibitory concentration index upto 2 times MIC incubated for 18 to 24 hrs in presence of imipenem by checkerboard assay; assay type: functional; details: time 18-24 hrs
Staphylococcus aureus [15] = experiment: Synergistic antibacterial activity against methicillin-resistant Staphylococcus aureus ATCC 33591 assessed as fractional inhibitory concentration index upto 2 times MIC incubated for 18 to 24 hrs in presence of gentamicin by checkerboard assay; assay type: functional; details: time 18-24 hrs
Staphylococcus aureus [16] = experiment: Anti-biofilm activity against methicillin-resistant Staphylococcus aureus ATCC 33591 at 8 uM incubated for 24 hrs by MTT assay; assay type: functional, organism-based
Staphylococcus aureus [17] = experiment: Bactericidal activity against methicillin-resistant Staphylococcus aureus ATCC 33591 at 4 times MIC incubated for 24 hrs in presence of >64 ug/ml phosphatidylcholine by absorbance based assay; assay type: functional, organism-based
Staphylococcus aureus [18] = experiment: Induction of cytoplasmic membrane depolarization in methicillin-resistant Staphylococcus aureus ATCC 33591 incubated upto 20 mins by DiSC3-5 dye based analysis; assay type: functional, organism-based
Staphylococcus aureus [19] = experiment: Induction of morphological changes in methicillin-resistant Staphylococcus aureus ATCC 33591 assessed as bacterial membrane folds at 2 times MIC incubated for 2 hrs by SEM analysis; assay type: functional, organism-based
Staphylococcus aureus [20] = experiment: Induction of morphological changes in methicillin-resistant Staphylococcus aureus ATCC 33591 assessed as large area membrane melting at 4 times MIC incubated for 2 hrs by SEM analysis; assay type: functional, organism-based
Staphylococcus aureus [21] = experiment: Induction of morphological changes in methicillin-resistant Staphylococcus aureus ATCC 33591 assessed as content leakage at 4 times MIC incubated for 2 hrs by SEM analysis; assay type: functional, organism-based
Staphylococcus aureus [22] = experiment: Induction of cell membrane damage in methicillin-resistant Staphylococcus aureus ATCC 33591 assessed as protein leakage at 2 to 8 times MIC measured upto 360 mins by absorbance based assay; assay type: functional, organism-based
Staphylococcus aureus [23] = experiment: Induction of ROS production in methicillin-resistant Staphylococcus aureus ATCC 33591 at 1 to 4 times MIC measured upto 360 mins by DCFH-DA dye based analysis; assay type: functional, organism-based
[24] = Toxicity in Balb/c mouse assessed as survival rate at 20 to 40 mg/kg, ip measured after 7 days; assay type: organism-based; details: in vivo, dose 20-40 mg/kg, time 7 day
[25] = Toxicity in Balb/c mouse assessed as survival rate at 80 mg/kg, ip measured after 7 days; assay type: organism-based; details: in vivo, time 7 day
[26] = Toxicity in Balb/c mouse assessed as change in heart co-efficient at 20 to 80 mg/kg, ip measured after 7 days; assay type: organism-based; details: in vivo, 168 h, dose 20-80 mg/kg, time 7 day
[27] = Toxicity in Balb/c mouse assessed as change in lung co-efficient at 20 to 80 mg/kg, ip measured after 7 days; assay type: organism-based; details: in vivo, 168 h, dose 20-80 mg/kg, time 7 day
[28] = Toxicity in Balb/c mouse assessed as change in spleen co-efficient at 20 to 80 mg/kg, ip measured after 7 days; assay type: organism-based; details: in vivo, 168 h, dose 20-80 mg/kg, time 7 day
Staphylococcus aureus [29] = experiment: Antibacterial activity against methicillin-resistant Staphylococcus aureus ATCC 33591 infected in Balb/c mouse model of acute systemic infection assessed as reduction in bacterial count in spleen at 10 mg/kg, ip measured after 5 days; assay type: functional, organism-based; details: time 5.0 day
Staphylococcus aureus [30] = experiment: Antibacterial activity against methicillin-resistant Staphylococcus aureus ATCC 33591 infected in Balb/c mouse model of acute systemic infection assessed as reduction in alveolar contraction in lung at 10 mg/kg, ip measured after 5 days by H and E staining based analysis; assay type: functional, organism-based; details: time 5.0 day
Staphylococcus aureus [31] = experiment: Antibacterial activity against methicillin-resistant Staphylococcus aureus ATCC 33591 infected in Balb/c mouse model of pneumonia infection assessed as reduction in bacterial load in lung at 10 mg/kg, ip administered thrice at 4, 8 and 12 hrs post-infection measured after 24 hrs post-infection; assay type: functional, organism-based; details: time 20.0 hrs
Staphylococcus aureus [32] = experiment: Antibacterial activity against methicillin-resistant Staphylococcus aureus ATCC 33591 infected in Balb/c mouse model of pneumonia infection assessed as reduction in bacterial load in lung at 10 mg/kg, ip administered thrice at 4, 8 and 12 hrs post-infection measured after 24 hrs post-infection in presence of polymyxin B; assay type: functional, organism-based; details: time 20.0 hrs
Staphylococcus aureus [33] = experiment: Antibacterial activity against methicillin-resistant Staphylococcus aureus ATCC 33591 infected in Balb/c mouse model of skin wound infection assessed as reduction in bacterial load in skin at 10 mg/kg, ip administered thrice at 1, 24 and 48 hrs post-infection measured after 72 hrs post-infection in presence of polymyxin B; assay type: functional, organism-based; details: time 71.0 hrs
Staphylococcus aureus [34] = experiment: Antibacterial activity against methicillin-resistant Staphylococcus aureus ATCC 33591 infected in Balb/c mouse model of skin wound infection assessed as reduction in inflammatory cell infiltration in skin at 10 mg/kg, ip administered thrice at 1, 24 and 48 hrs post-infection measured after 14 days by H and E staining based analysis; assay type: functional, organism-based; details: time 14.0 day
Staphylococcus aureus [35] = experiment: Antibacterial activity against methicillin-resistant Staphylococcus aureus ATCC 33591 infected in Balb/c mouse model of skin wound infection assessed as reduction in TNF-alpha activity in skin at 10 mg/kg, ip administered thrice at 1, 24 and 48 hrs post-infection measured after 14 days by IHC analysis; assay type: functional, organism-based; details: time 14.0 day

SMILES: CCCCCCCCCCCC(=O)N[C@H](CCCNC(=N)N)C(=O)N[C@H](CCCNC(=N)N)C(=O)N[C@H](Cc1c[nH]c2ccccc12)C(=O)O
- Retention_time [1]: 17.826 min
- HC10 [2]: 64 µM
- MIC (Staphylococcus aureus [3]): 4 µM
- MIC (Staphylococcus aureus [4]): 4 µM
- fold change (FC) (Staphylococcus aureus [5]): <3
- inhibition (Staphylococcus aureus [6]): Active
- Activity (Staphylococcus aureus [7]): Active; Compound Exhibited Better Effect Than Compound Alone-Treatment; Although It Was Lower Than Polymyxin B, It Significantly Reduced Dosage Of Polymyxin B And Reduced Toxicity Of The Drug
- Activity (Staphylococcus aureus [8]): Dose-dependent-effect
- inhibition (Staphylococcus aureus [9]): Active
- inhibition (Staphylococcus aureus [10]): Active
- inhibition (Staphylococcus aureus [11]): Active
- MIC (Staphylococcus aureus [12]): 8 µM (≈ 5.59 µg/mL)
- MIC (Staphylococcus aureus [13]): 8 µM (≈ 5.59 µg/mL)
- fractional inhibitory concentration index (FICI) (Staphylococcus aureus [14]): 0.25
- fractional inhibitory concentration index (FICI) (Staphylococcus aureus [15]): 0.125
- Activity (Staphylococcus aureus [16]): Active; Compound Activity Was Slightly Weaker Than Vancomycin But Significantly Better Than Polymyxin B, Imipenem, Ciprofloxacin And Gentamicin
- Activity (Staphylococcus aureus [17]): inactive
- Activity (Staphylococcus aureus [18]): Dose-dependent-effect; Compound Activity Was Slightly Weaker Than Triton X-100
- Activity (Staphylococcus aureus [19]): Active
- Activity (Staphylococcus aureus [20]): Active
- Activity (Staphylococcus aureus [21]): Active
- Activity (Staphylococcus aureus [22]): Active
- Activity (Staphylococcus aureus [23]): Active
- survival at 168 h [24]: 100%
- survival at 168 h [25]: 75%
- Activity [26]: Non-toxic
- Activity [27]: Non-toxic
- Activity [28]: Non-toxic
- Activity (Staphylococcus aureus [29]): Active
- Activity (Staphylococcus aureus [30]): Active
- Activity (Staphylococcus aureus [31]): Active
- Activity (Staphylococcus aureus [32]): Active
- Activity (Staphylococcus aureus [33]): Active
- Activity (Staphylococcus aureus [34]): Active
- Activity (Staphylococcus aureus [35]): Active
